Measured values published in US5432260A, “High affinity mannose receptor ligands” (Washington University, priority 1991, dated 1995).

Molecular target: T1, purified mannose receptor (Homo sapiens, UniProt P22897)
T1 construct: purified mannose receptor (Lennartz, M. R. et al., J Biol Chem (1987) 262:9942-9944 (supra)) is added; from tissue
T1 sequence (P22897 19-1456): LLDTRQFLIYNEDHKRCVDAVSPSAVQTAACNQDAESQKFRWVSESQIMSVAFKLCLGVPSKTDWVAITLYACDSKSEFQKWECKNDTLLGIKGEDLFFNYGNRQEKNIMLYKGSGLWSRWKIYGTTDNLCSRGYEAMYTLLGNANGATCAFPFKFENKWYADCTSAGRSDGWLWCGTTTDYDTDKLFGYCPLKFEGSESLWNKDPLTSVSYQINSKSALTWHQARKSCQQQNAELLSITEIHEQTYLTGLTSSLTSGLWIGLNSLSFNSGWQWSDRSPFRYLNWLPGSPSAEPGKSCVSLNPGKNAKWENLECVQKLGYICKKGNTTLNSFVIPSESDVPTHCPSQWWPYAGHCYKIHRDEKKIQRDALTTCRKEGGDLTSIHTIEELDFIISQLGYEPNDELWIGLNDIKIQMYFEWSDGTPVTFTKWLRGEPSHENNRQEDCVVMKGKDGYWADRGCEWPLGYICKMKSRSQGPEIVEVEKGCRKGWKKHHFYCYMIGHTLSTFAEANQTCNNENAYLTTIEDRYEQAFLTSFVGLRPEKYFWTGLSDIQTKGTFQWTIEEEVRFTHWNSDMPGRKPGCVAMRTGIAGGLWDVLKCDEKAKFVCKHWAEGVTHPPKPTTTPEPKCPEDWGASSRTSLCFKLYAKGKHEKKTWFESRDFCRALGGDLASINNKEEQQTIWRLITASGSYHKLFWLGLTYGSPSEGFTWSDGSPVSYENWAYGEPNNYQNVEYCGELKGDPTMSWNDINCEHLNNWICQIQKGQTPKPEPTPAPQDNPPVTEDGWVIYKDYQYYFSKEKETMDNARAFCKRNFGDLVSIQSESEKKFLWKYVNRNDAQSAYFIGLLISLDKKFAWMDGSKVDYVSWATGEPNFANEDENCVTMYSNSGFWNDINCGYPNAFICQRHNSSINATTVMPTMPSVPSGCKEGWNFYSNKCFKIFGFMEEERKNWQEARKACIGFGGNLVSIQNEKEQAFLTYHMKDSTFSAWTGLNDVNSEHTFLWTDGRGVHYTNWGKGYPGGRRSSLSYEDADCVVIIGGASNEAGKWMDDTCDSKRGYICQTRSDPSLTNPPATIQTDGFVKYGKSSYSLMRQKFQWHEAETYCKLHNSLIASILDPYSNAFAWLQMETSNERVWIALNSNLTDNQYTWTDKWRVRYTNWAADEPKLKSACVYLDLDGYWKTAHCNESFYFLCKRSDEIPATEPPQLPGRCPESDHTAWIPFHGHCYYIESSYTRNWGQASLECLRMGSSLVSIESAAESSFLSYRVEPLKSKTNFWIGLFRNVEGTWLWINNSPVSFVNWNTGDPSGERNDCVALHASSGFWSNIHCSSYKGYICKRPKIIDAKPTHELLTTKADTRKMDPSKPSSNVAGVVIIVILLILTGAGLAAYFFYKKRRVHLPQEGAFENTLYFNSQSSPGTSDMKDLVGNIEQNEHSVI
Test: Competition of 125I-mannose-BSA binding to isolated mannose receptor on beads
Conditions: for IC50: 125I-mannose-BSA 2 nM, 37° C., 15 minutes, read-out: IC50 (concentration effecting 50% inhibition of 125I-mannose-BSA binding to mannose receptor)
Experimental: The assay measures the ability of the test compound to inhibit the binding of ^125 I-mannose-BSA, prepared as described, to isolated mannose receptor. To prepare solid supported receptor protein A-sepharose (IgG-SORB) is incubated with rabbit anti-human mannose receptor antiserum for 20 minutes at room temperature. The beads are then washed by sedimentation 3 times in Tris-buffered saline containing 1% Triton X-100, 1% BSA and 15 mM CaCl2 (assay buffer). The beads are then suspended in an assay buffer and purified mannose receptor (Lennartz, M. R. et al., J Biol Chem (1987) 262:9942-9944 (supra)) is added, followed by incubation for 30 minutes at 37° C. The beads are washed again three times to remove unbound receptor.
In the assay, the receptor-linked beads are resuspended in a total volume of 100 μL assay buffer containing 0.1 μCi ^125 I-mannose-BSA (2 nM) prepared according to (Stahl, P. et al., Cell (1980) (supra)) with and without test compound. Following incubation at 37° C. for 15 minutes, the beads are diluted in ice cold buffer and washed three times in the same assay buffer as the dissociation or receptor/ligand at 4° C. is quite slow. The cpm of ^125 I-mannose-BSA remaining in the […] is determined, and the percent inhibition of test compound at various concentrations calculated. The IC50 is then the concentration which effects a 50% inhibition in binding. Nonspecific binding of ligand to beads is determined by adding excess yeast mannan to parallel assays and accounted for in the calculations.
The ^125 I-mannose-BSA used in the assay binds to receptor beads with a Kd of 2 nM as determined in the foregoing assay using unlabeled mannose-BSA as test compound.
The competition was conducted as set forth above, using as test compounds, mannose, oligosaccharides containing 3, 5, 7, 9 or 13 mannose residues linked α1, 4 (Man9 and Man13, respectively) and two proteins known to contain mannose residues, β-glucuronidase and invertase. ^125 I-mannose-BSA at 2 nM was used in the assay and mannose-BSA was used in a control. Varying concentrations of test compound were used to determine the IC50 for each material.
The compounds synthesized in Example 2 were tested in the assay system described in Example 1 above under the conditions therein set forth. FIGS. 2 and 3 show the results. The IC50 (concentration of test compound which effects 50% inhibition of binding of labeled mannose-BSA under the conditions of the assay) can be read from the figures.

Molecule	IC50 [µM]	ability to inhibit the binding of 125I-mannosyl-BSA after digestion with pronase (digested with pronase)	fold less effective than the mannose oligosaccharides in inhibiting 125I-mannose-BSA binding (relative to Man9/Man13, FIG. 1)
Man9	~20	–	–
Invertase: protein known to contain mannose residues	0.01 to 0.1	destroyed	–
O=C[C@@H](O)[C@@H](O)[C@H](O)[C@H](O)CO [Mannose, mannose]	–	–	at least 1,000 fold
